From patent US20260103455A1, “ULK3 INHIBITORS AND USES THEREOF” (H. LEE MOFFITT CANCER CENTER AND RESEARCH INSTITUTE, INC., priority 2022, published 2026)
Several values for one entry are separate records, joined by “and”; a condition that tells them apart may be missing. Identical values can stand only once. Counter-ions that a name gives are not always drawn.

What was measured:
ULK3 = molecular target: T1, ULK3 (Homo sapiens, UniProt Q6PHR2); test: DSF (ULK3) thermal shift; type: binding
T1 sequence (Q6PHR2 1-472): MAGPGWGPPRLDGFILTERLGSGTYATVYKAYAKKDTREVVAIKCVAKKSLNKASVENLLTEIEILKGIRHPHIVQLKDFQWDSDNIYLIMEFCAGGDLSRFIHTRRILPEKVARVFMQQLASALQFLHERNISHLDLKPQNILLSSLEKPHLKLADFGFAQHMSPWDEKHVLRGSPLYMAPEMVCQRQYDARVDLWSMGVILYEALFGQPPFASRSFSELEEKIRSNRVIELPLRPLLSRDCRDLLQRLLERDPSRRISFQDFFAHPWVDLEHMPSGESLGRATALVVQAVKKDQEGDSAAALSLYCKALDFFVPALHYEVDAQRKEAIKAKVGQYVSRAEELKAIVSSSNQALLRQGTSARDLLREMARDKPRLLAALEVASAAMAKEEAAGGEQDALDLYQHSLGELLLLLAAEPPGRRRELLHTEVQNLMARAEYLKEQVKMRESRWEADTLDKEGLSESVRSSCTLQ

JAK2 = JAK2 (Homo sapiens, UniProt O60674); test: DSF (JAK2) thermal shift; type: binding
Sequence of JAK2 (O60674 whole entry): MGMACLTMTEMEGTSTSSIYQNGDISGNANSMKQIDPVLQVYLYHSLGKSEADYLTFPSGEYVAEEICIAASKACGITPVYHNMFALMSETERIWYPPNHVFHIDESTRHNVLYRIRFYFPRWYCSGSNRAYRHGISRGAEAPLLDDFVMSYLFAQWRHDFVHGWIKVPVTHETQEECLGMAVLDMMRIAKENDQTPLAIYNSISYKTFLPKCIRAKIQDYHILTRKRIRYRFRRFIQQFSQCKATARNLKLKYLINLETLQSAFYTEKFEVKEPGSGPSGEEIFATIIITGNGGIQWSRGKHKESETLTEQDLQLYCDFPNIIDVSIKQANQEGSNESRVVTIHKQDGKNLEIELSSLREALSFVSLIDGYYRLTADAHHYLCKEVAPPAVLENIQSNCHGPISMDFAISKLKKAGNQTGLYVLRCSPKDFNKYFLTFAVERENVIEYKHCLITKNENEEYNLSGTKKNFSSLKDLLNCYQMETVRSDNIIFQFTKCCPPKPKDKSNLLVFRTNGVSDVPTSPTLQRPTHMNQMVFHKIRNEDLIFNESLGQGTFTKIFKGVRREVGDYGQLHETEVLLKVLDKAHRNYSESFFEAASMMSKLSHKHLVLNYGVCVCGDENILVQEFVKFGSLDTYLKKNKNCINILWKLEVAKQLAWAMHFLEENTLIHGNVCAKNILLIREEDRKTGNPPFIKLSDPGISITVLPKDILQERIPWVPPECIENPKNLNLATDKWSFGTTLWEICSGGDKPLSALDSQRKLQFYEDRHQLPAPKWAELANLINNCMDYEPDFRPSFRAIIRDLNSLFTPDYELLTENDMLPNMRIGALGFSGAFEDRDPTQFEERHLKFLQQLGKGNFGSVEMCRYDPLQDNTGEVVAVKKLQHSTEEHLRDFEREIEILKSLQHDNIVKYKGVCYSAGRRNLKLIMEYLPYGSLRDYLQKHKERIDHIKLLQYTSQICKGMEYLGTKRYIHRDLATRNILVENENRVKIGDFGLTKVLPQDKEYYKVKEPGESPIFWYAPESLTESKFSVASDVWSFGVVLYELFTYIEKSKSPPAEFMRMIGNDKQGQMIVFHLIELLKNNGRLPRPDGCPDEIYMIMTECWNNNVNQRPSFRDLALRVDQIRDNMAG

Row | DSF (ULK3) ΔTm (° C.) (ULK3) | DSF (JAK2) ΔTm (° C.) (JAK2) [°C] | Compound
1 | 8.4 °C | – | COC[C@H](NC(=O)c1ccc(-c2ccnc(Nc3ccc(N4CCOCC4)cc3)n2)cc1)c1ccccc1 [BR1-038, (R)—N-(2-Methoxy-1-phenylethyl)-4-(2-((4-morpholinophenyl)amino)pyrimidin-4-yl)benzamide]
2 | 14.7 °C | – | O=C(NCC(F)(F)F)c1ccc(-c2ccnc(Nc3cccc(N4CCOCC4)c3)n2)cc1 [BR1-045, 4-(2-((3-Morpholinophenyl)amino)pyrimidin-4-yl)-N-(2,2,2-trifluoroethyl)benzamide]
3 | 13.4 °C | – | O=C(c1ccc(-c2ccnc(Nc3cccc(N4CCOCC4)c3)n2)cc1)N1CCC[C@@H]1C(F)(F)F [BR1-047]
4 | 9.3 °C | – | O=C(c1ccc(-c2ccnc(Nc3cccc(N4CCOCC4)c3)n2)cc1)N1CCC[C@H]1C(F)(F)F [BR1-048]
5 | 11.1 °C | – | CN1CCN(c2cc(F)cc(Nc3nccc(-c4ccc(C(=O)NCC(F)(F)F)cc4)n3)c2)CC1 [BR1-051]
6 | 14.1 °C | – | CN1CCN(c2cc(F)cc(Nc3nccc(-c4ccc(C(=O)N5CCC[C@@H]5C(F)(F)F)cc4)n3)c2)CC1 [BR1-052]
7 | 10.5 °C | – | CN1CCN(c2cc(F)cc(Nc3nccc(-c4ccc(C(=O)N5CCC[C@H]5C(F)(F)F)cc4)n3)c2)CC1 [BR1-053]
8 | 1.3 °C | – | O=C(NCC(F)(F)F)c1ccc(-c2ccnc(Nc3ccc(N4CCOCC4)cc3N3CCOCC3)n2)cc1 [BR1-054]
9 | 8.1 °C | 5.5 | Cc1cnc(Nc2ccc(N3CCOCC3=O)cc2)nc1-c1ccc(C(=O)NCC#N)cc1 [GM1-030, N-(Cyanomethyl)-4-(5-methyl-2-((4-(3-oxomorpholino)phenyl)amino)pyrimidin-4-yl)benzamide]
10 | 8.4 °C | – | Cc1cnc(Nc2ccc(N3CCOCC3)cc2)nc1-c1ccc(C(=O)NCC#N)cc1 [GM1-032, N-(Cyanomethyl)-4-(5-methyl-2-((4-(morpholino)phenyl)amino)pyrimidin-4-yl)benzamide]
11 | 10.6 °C | – | N#CCNC(=O)c1ccc(-c2nc(Nc3ccc(N4CCOCC4)cc3)ncc2F)cc1 [GM1-034, N-(Cyanomethyl)-4-(5-fluoro-2-((4-morpholinophenyl)amino)pyrimidin-4-yl)benzamide]
12 | 11.0 °C and 13.1 °C | 6.48 | N#CCNC(=O)c1ccc(-c2nc(Nc3ccc(N4CCOCC4)cc3)ncc2Cl)cc1 [GM1-048, 4-(5-Chloro-2-((4-morpholinophenyl)amino)pyrimidin-4-yl)-N-(cyanomethyl)benzamide]
13 | 11.8 °C | – | N#CCNC(=O)c1ccc(-c2nc(Nc3ccc(N4CCOCC4=O)cc3)ncc2Cl)cc1 [GM1-072, 4-(5-Chloro-2-((4-(3-oxomorpholino)phenyl)amino)pyrimidin-4-yl)-N-(cyanomethyl)benzamide]
14 | 11.9 °C and 12.6 °C | – | CS(=O)(=O)O.Cc1cnc(Nc2ccc(C3CCN(C)CC3)c(F)c2)nc1Nc1ccc(Cl)c(NS(=O)(=O)C(C)(C)C)c1 [MA9-060, reference compound]
15 | 14.3 °C and 10.6 °C and 13.2 °C | – | N#CCNC(=O)c1ccc(-c2ccnc(Nc3ccc(N4CCOCC4)cc3)n2)cc1 [Momelotinib (BL4-106), Momelotinib, reference compound]
16 | 6.8 °C | – | CN1CCC(c2cnc(Nc3nc(-c4ccc(C(=O)NCC#N)cc4)c4cc[nH]c4n3)cc2F)CC1 [RF1-058, N-(Cyanomethyl)-4-(2-((4-fluoro-5-(1-methylpiperidin-4-yl)pyridin-2-yl)amino)-7H-pyrrolo-[2,3-d]pyrimidin-4-yl)benzamide]
17 | 10.6 °C | – | Cc1cnc(Nc2ccc(C(=O)NC3CCN(C)CC3)c(F)c2)nc1Nc1ccc(Cl)c(NS(=O)(=O)C(C)(C)C)c1 [SG3-179, reference compound]

More lines, now with the values behind:

Row | Compound | DSF (ULK3) ΔTm (° C.) (ULK3) | DSF (JAK2) ΔTm (° C.) (JAK2) [°C]
18 | 2-Fluoro-N-methyl-4-((4-(4-((2,2,2-trifluoroethyl)carbamoyl)phenyl)pyrimidin-2-yl) amino)benzamide [BH1-106] | 9.9 °C | 0.54
19 | CC(C)[C@H](CO)NC(=O)c1ccc(-c2ccnc(Nc3ccc(N4CCOCC4)cc3)n2)cc1 [BH1-063, (R)—N-(1-Hydroxy-3-methylbutan-2-yl)-4-(2-((4-morpholinophenyl)amino)pyrimidin-4-yl)benzamide] | 7.9 °C | 3.6
20 | N#CCNC(=O)c1ccc(-c2ccnc(Nc3ccc(N4CCOCC4=O)cc3)n2)cc1 [BH1-090, N-(Cyanomethyl)-4-(2-((4-(3-oxomorpholino)phenyl)amino)pyrimidin-4-yl)benzamide] | 7.5 °C | 1.3
21 | CN1CCN(c2ccc(Nc3ncc(F)c(-c4ccc(C(=O)NCC#N)cc4)n3)cc2F)CC1 [BH1-095] | 8.8 °C | –
22 | Cc1cnc(Nc2ccc(CN3CCN(C)CC3)cc2)nc1-c1ccc(C(=O)NCC#N)cc1 [BH1-102] | 7.2 °C | 4.68
23 | COC(=O)c1ccc(Nc2nccc(-c3ccc(C(=O)NCC(F)(F)F)cc3)n2)cc1F [BH1-104, Methyl 2-fluoro-4-((4-(4-((2,2,2-trifluoroethyl)carbamoyl)phenyl)pyrimidin-2-yl)amino)benzoate] | 6.9 °C | 0.05
24 | COc1cc(N2CCOCC2)ccc1Nc1nccc(-c2ccc(C(=O)NCC(F)(F)F)cc2)n1 [BH1-132, 4-(2-((2-Methoxy-4-morpholinophenyl)amino)pyrimidin-4-yl)-N-(2,2,2-trifluoroethyl)benzamide] | 10.0 °C | 0.1
25 | O=C(NCC(F)(F)F)c1ccc(-c2ccnc(Nc3ccc(N4CCOCC4)c(F)c3)n2)cc1 [BH1-138, 4-(2-((3-Fluoro-4-morpholinophenyl)amino)pyrimidin-4-yl)-N-(2,2,2-trifluoroethyl)benzamide] | – | 0.5
26 | CN1CCN(c2cccc(Nc3nccc(-c4ccc(C(=O)NCC(F)(F)F)cc4)n3)c2)CC1 [BH2-010, 4-(2-((3-(4-Methylpiperazin-1-yl)phenyl)amino)pyrimidin-4-yl)-N-(2,2,2-trifluoroethyl)benzamide] | 14.4 °C | –
27 | CN1CCN(c2cccc(Nc3nccc(-c4ccc(C(=O)N5CCC[C@@H]5C(F)(F)F)cc4)n3)c2)CC1 [BH2-011, (R)-(4-(2-((3-(4-Methylpiperazin-1-yl)phenyl)amino)pyrimidin-4-yl)phenyl) (2-(trifluoromethyl)pyrrolidin-1-yl) methanone] | 14.5 °C and 14.4 °C | –
28 | CN1CCN(c2cccc(Nc3nccc(-c4ccc(C(=O)N5CCC[C@H]5C(F)(F)F)cc4)n3)c2)CC1 [BH2-013, (S)-(4-(2-((3-(4-Methylpiperazin-1-yl)phenyl)amino)pyrimidin-4-yl)phenyl) (2-(trifluoromethyl)pyrrolidin-1-yl) methanone] | 10.9 °C | –
29 | N#CCNC(=O)c1ccc(-c2ccnc(Nc3ccc(N4CCOCC4)cc3)n2)cc1 [BL4-106 HCl salt, reference compound] | 14.3 °C and 9.9 °C | –
30 | N#CCNC(=O)c1ccc(-c2ncnc3[nH]ccc23)cc1 [BL4-136] | 5.1 °C | 1
31 | N#CC(NC(=O)c1ccc(-c2ccnc(Nc3ccc(N4CCOCC4)cc3)n2)cc1)c1ccccc1 (stereo not drawn) [BL4-153, N-(Cyano (phenyl)methyl)-4-(2-((4-morpholinophenyl)amino)pyrimidin-4-yl)benzamide] | 11.6 °C | –
32 | COC[C@H](Cc1ccccc1)NC(=O)c1ccc(-c2ccnc(Nc3ccc(N4CCOCC4)cc3)n2)cc1 [BR1-012] | 5.8 °C | 0.1
33 | O=C(N[C@H](CO)Cc1ccccc1)c1ccc(-c2ccnc(Nc3ccc(N4CCOCC4)cc3)n2)cc1 [BR1-034, (S)—N-(1-Hydroxy-3-phenylpropan-2-yl)-4-(2-((4-morpholinophenyl)amino)pyrimidin-4-yl)benzamide] | 9.1 °C | –
34 | COC[C@@H](NC(=O)c1ccc(-c2ccnc(Nc3ccc(N4CCOCC4)cc3)n2)cc1)c1ccccc1 [BR1-036, (S)—N-(2-Methoxy-1-phenylethyl)-4-(2-((4-morpholinophenyl)amino)pyrimidin-4-yl)benzamide] | 9.8 °C | –
35 | N#CCNC(=O)c1ccc(-c2nc(Nc3ccc(N4CCOCC4=O)cc3)ncc2F)cc1 [GM1-036BA2, N-(Cyanomethyl)-4-(5-fluoro-2-((4-(3-oxomorpholino)phenyl)amino)pyrimidin-4-yl)benzamide] | 8.7 °C | 1.1
36 | CN1CCC(c2ccc(Nc3ncc(F)c(-c4ccc(C(=O)NCC#N)cc4)n3)cc2F)CC1 [GM1-064, N-(Cyanomethyl)-4-(5-fluoro-2-((3-fluoro-4-(1-methylpiperidin-4-yl)phenyl)amino)pyrimidin-yl)benzamide] | 8.0 °C | 3.68
